# Measured values as given in US20160175485A1, “COMBINATION THERAPY TO PROMOTE WOUND HEALING” (THE REGENTS OF THE UNIVERSITY OF CALIFORNIA, priority 2013, published 2016).
# Columns and labels:
# BM-MSC [1] = test: Secreted IL-6 ELISA in BM-MSC; assay type: cell-based, human; conditions: for increase in IL-6 secretion as compared to untreated control cells: four hours, EPI 50 nM, MALP2 100 ng/ml, HKSA 10^4 cells/ml
# From the text: (§1) Human bone marrow aspirations obtained from four healthy donors were purchased from Lonza. MSC were harvested from bone marrow (BM) following established protocols (26, 27), and used between passages 3-5. Characterization of MSC included differentiation into osteogenic and adipogenic lineage cells, as described previously (27). The stem cell research oversight (SCRO) review board at the University of California, Davis approved all the human cell protocols.
# (§2) Epinephrine (EPI: Sigma) and TLR2 ligands (macrophage activating lipoprotein-2: MALP2—that specifically activates TLR2/6 heterodimerization, and heat killed Staphylococcus aureus: HKSA; Invivogen) treatments were carried out at the indicated times and concentrations. All the cells were maintained in 0.5% fetal bovine serum containing culture medium overnight prior to treatment. Cells were exposed to different treatments in fresh serum-free medium. In some experiments, cells were pretreated for 30 minutes with Timolol (10 μM; Sigma) or ICI-118, 551 (ICI; 10 μM; Tocris) followed by EPI and MALP2 treatment as described previously (11-13, 30).
# (§3) Levels of interleukin-6 (IL-6) were measured with an ELISA kit (R&D systems). IL-6 levels were normalized to total cell protein and expressed as pg/μg protein β1).
# BM-MSC [2] = test: Real time PCR (TLR2, ADRB2 mRNA) in BM-MSC; assay type: cell-based, human
# Method: as §2
# mRNA expression was determined by real-time PCR (RT-PCR), using sequence-specific primers and probes. Total RNA was extracted from the cells using Qiagen RNeasy mini kit. The first strand of cDNA was synthesized using 1 μg of total RNA. cDNA (50 ng) was amplified using primer probe sets for TLR2, beta-2-adrenergic receptor (ADRB2) and three housekeeping genes: beta-2-microglobulin, GAPDH, and RPLPO using standard cycling parameters. Data were calculated using the 2-ΔΔCt method and are presented as fold change (ratio of transcripts of gene normalized to the three house-keeping genes) (11-13, 31).
# NHK [3] = test: Western blots (PNMT, TH) in NHK; assay type: cell-based, human
# Method: as §2
# Twenty five μg of total protein was resolved, transferred, and probed with antibodies for β2-AR (Abcam), phospho beta-adrenergic receptor activated kinase-1 (BARK-1/GRK2 referred to as BARK-1 from here after; GeneTex), TLR2 (Imgenex) Myeloid differentiation factor 88 (MyD88; Imgenex), phospho interleukin receptor activated kinase-1 (pIRAK-1 and IRAK-1; Cell Signaling), phospho ERK1/2 (Santacruz), phenylethanolamine N-methyltransferase (PNMT) and tyrosine hydroxylase (TH), and stripped membranes were further incubated with respective total antibodies or GAPDH or α-tubulin. TLR2 (Imgenex) and β2-AR (Santacruz) antibodies were used for co-immunoprecipation assays and antibody protein complexes were further probed with above antibodies β1). […]
# BM-MSC [4] = test: Single-cell migration of BM-MSC; assay type: cell-based, human; conditions: EPI 50 nM, MALP2 100 ng/ml, Timolol 10 μM, 30 min pretreatment
# From the text: as §1, §2
# BM-MSC [5] = test: HPLC detection of catecholamines in BM-MSC supernatants; assay type: cell-based, human; conditions: MALP2 100 ng/ml
# Method: (§4) Cell culture samples from at least from three independent experiments were acidified with perchloric acid to 0.2N prior to storage at −80° C. for future analysis. The supernatant were applied to conditioned MonoSpin® PBA solid phase extraction spin columns (GL Sciences) and purifications were performed according to the manufacturer's specifications. Catecholamines were eluted in 200 μL of 2% acetic acid.
# (§5) HPLC separation was performed using a Synergi™ 4 um Fusion-reverse phase 250×4.6 mm column (Phenomenex) and a HP series 1050 pump and auto injector system. The mobile phase for chromatographic separation was a modification of that used by Leis et al (33). Detection of catecholamine compounds was performed using a LC-4C amperometric detector (Bioanalytical Systems) using potential of […]. Catecholamine levels are presented as pg/μg cell protein.
# NHK [6] = test: Co-immunoprecipitation with β2-AR and TLR2 antibody in NHK; assay type: cell-based, human; conditions: MALP2 100 ng/ml
# From the text: (§6) Twenty five μg of total protein was resolved, transferred, and probed with antibodies for β2-AR (Abcam), phospho beta-adrenergic receptor activated kinase-1 (BARK-1/GRK2 referred to as BARK-1 from here after; GeneTex), TLR2 (Imgenex) Myeloid differentiation factor 88 (MyD88; Imgenex), phospho interleukin receptor activated kinase-1 (pIRAK-1 and IRAK-1; Cell Signaling), phospho ERK1/2 (Santacruz), phenylethanolamine N-methyltransferase (PNMT) and tyrosine hydroxylase (TH), and stripped membranes were further incubated with respective total antibodies or GAPDH or α-tubulin. TLR2 (Imgenex) and β2-AR (Santacruz) antibodies were used for co-immunoprecipation assays and antibody protein complexes were further probed with above antibodies β1). Protein A/G-sepharose beads and isotype matched IgG antibodies were used as negative controls in all the co-immunoprecipitation experiments along with the antibody used for the pull down as a positive control. Band intensities were determined as described previously and normalized to GAPDH/α-tubulin or total protein (BARK-1) and densitometric ratios are presented as fold change vs control β1). For some experiments, cell lysates from three independent experiments were pooled to get enough protein for the assay and repeated three times for densitometry purposes.
# NHK [7] = test: HPLC detection of catecholamines in NHK supernatants; assay type: cell-based, human
# Method: as §4, §5
# BM-MSC [8] = test: Western blots in BM-MSC; assay type: cell-based, human
# Method: as §2, §6
# NHK [9] = test: Secreted IL-6 ELISA in NHK; assay type: cell-based, human; conditions: for increase in IL-6 secretion as compared to untreated NHK: four hours, EPI 50 nM, MALP2 100 ng/ml, HKSA 10^4 cells/ml
# From the text: NHK were isolated from human neonatal foreskins, cultured and maintained, as reported earlier (28,29). NHKs isolated from at least three different foreskins and between passages 3 and 7 were used in all the experiments. The Institutional Review Board at UC Davis approved the protocol for obtaining discarded neonatal foreskins.
# as §2, §3
# [10] = cited from earlier work
# C57BL/6J mice = test: Full-thickness cutaneous wounds in EPI stressed mice (osmotic pumps); assay type: in vivo, mouse; conditions: for wound closure: EPI 7 mg/kg body weight/day, ICI 0.7 mg/kg body weight/day by osmotic pump; for TLR2 expression in wound tissue: day 7 after injury; for IL-6 levels in the wound tissue / phosphorylation of ERK1/2 in wounds: mouse, in vivo
# Method: C57BL/6J (male; 8-10 week age; Jax Mice) with ad libitum access to food and water were anesthetized using isoflurane and one 6 mm circular diameter full-thickness wound was placed on the dorsal shaved skin β1). Micro-osmotic pumps (0.25 μl/hour; Alzet micro-osmotic pump Model: 1002, Alzet) were implanted on the right flank of the mice to deliver 7 mg/kg body weight/day EPI and 0.7 mg/kg body weight/day of ICI) as we have previously reported (11-13,30). At 7 or 11 days after injury, the mice were euthanized, the wound tissue was harvested by 8 mm punch excision and stored frozen or formalin—fixed until further analysis. Animal protocols were approved by the IACUC at UC Davis.
# Bone marrow MSCs = test: BM-MSC migration tracked for 12 hours after antagonist treatment (FIG. 11); assay type: cell-based, human; conditions: treated 1 hour, tracked 12 hours
# Method: FIG. 11 illustrates that results are not limited to one class of beta adrenergic antagonist. Bone marrow MSCs from two different individuals were cultured and treated with either a non-specific beta adrenergic receptor antagonist (timolol) or a beta 2 adrenergic receptor specific antagonist (ICI 118,551) at stated concentrations for 1 hour, then cell migration was tracked for 12 hours. For each experiment 80-90 cells were tracked. Means+/−SEM shown, *=p<0.005.
# NHK [11] = test: Scratch wound assay in confluent NHK cultures; assay type: cell-based, human; conditions: 30 minutes pretreatment; for IL-6 secretion in wounded NHK confluent sheets: antagonists 10 μM; for effect on EPI+MALP2 or EPI+HKSA delayed NHK migration: scratch-wounded NHK, antagonist 10 μM
# Method: as §3
# The rate of healing scratch wounds made in confluent NHK cultures was determined as reported previously (30, 32). Briefly, cells were pretreated with 10 μg/ml mitomycin (EMD Millipore) for 1 hr to inhibit cell proliferation that could skew the data analysis. Wounded cultures were incubated in growth medium (control) containing EPI, TLR2 ligands, and/or Timolol or ICI. Velocity Image analysis software (Perkin Elmer) was used to measure the scratch wound area, which is expressed as percent closed wound.
# RAW 264.7 macrophages = conditions: cited from earlier work
# [12] = test system: monocytic cell line and rat macrophages; conditions: supraphysiologic levels of EPI (5000-10,000 ng/ml); cited from earlier work
# murine macrophages = conditions: epinephrine pretreatment; cited from earlier work
# [13] = BM-MSC, Timolol 10 μM, 30 min pretreatment
molecule,measurement,setting,value
MALP2,increase in IL-6 secretion as compared to untreated control cells,BM-MSC [1]; BM-MSC,2.6 fold
same,β2-adrenergic receptor mRNA expression,BM-MSC [2]; MALP2 100 ng/ml,significantly up-regulated
same,PNMT and TH enzymes,NHK [3],induced
same,inhibition in migratory speed,BM-MSC [4],15%
same,EPI and norepinephrine levels in cell culture supernatants,BM-MSC [5],increased
same,β2-AR expression and BARK-1 phosphorylation in TLR2 immunoprecipitates,NHK [6],noticeable increase
same,catecholamine response of NHKs relative to BM-MSC,NHK [7]; MALP2 treated,2-4 fold
same,EPI and norepinephrine levels in cell culture supernatants,"NHK [7]; NHK, MALP2 100 ng/ml",increased
same,BARK-1 phosphorylation,BM-MSC [8],significantly increased
same,PNMT and TH enzymes,BM-MSC [8],induced
same,β2-adrenergic receptor protein expression,BM-MSC [8]; MALP2 100 ng/ml,significantly up-regulated
same,increase in IL-6 secretion as compared to untreated NHK,NHK [9],8.8 fold
CC(C)(C)NCC(O)COc1cccc2c1CC(O)C(O)C2 (stereo not drawn) [Nadolol],lipid solubility,[10],low
"Cc1ccc(OCC(O)C(C)NC(C)C)c2c1CCC2 (stereo not drawn) [ICI 118,551]",wound closure,C57BL/6J mice,reversed
same,TLR2 expression in wound tissue,C57BL/6J mice,reversed
same,IL-6 levels in the wound tissue,C57BL/6J mice,decreased
same,phosphorylation of ERK1/2 in wounds,C57BL/6J mice,increases
same,migratory speed of bone marrow derived MSC,Bone marrow MSCs,increase migratory speed
same,IL-6 secretion in wounded NHK confluent sheets,NHK [11],reverses
same,effect on EPI+MALP2 or EPI+HKSA delayed NHK migration,NHK [11],reverses
same,IL-6 release by human keratinocytes under β adrenergic receptor antagonist,NHK [9],suppression
CC(C)(C)NC[C@H](O)COc1nsnc1N1CCOCC1 [Timolol],decrease of EPI+HKSA induced IL-6 secretion by pretreatment,BM-MSC [1]; [13],1.5 fold
same,decrease of EPI+MALP2 induced IL-6 secretion by pretreatment,BM-MSC [1]; [13],33 fold
same,IL-6 levels,"BM-MSC [1]; BM-MSC, mean±SD, antagonist 10 μM, 30 min pretreatment",4.8±2.7 pg/μg protein
same,migratory speed of bone marrow derived MSC,Bone marrow MSCs,increase migratory speed
same,IL-6 secretion in wounded NHK confluent sheets,NHK [11],reverses
same,effect on EPI+MALP2 or EPI+HKSA delayed NHK migration,NHK [11],reverses
same,IL-6 release by human keratinocytes under β adrenergic receptor antagonist,NHK [9],suppression
Polymyxin B,effect of pretreatment on EPI or MALP2 induced IL-6 levels,"BM-MSC [1]; BM-MSC, endotoxin control",did not affect
OCc1cc(C(O)CNCCCCCCOCCCCc2ccccc2)ccc1O (stereo not drawn) [salmeterol],IL-1β and IL-6 protein production,RAW 264.7 macrophages,significant increase
same,increase in IL-1β transcripts,RAW 264.7 macrophages,80 fold
same,increase in IL-6 transcripts,RAW 264.7 macrophages,8 fold
"CNC[C@H](O)c1ccc(O)c(O)c1 [EPI, Epinephrine]",TLR4 mRNA expression,[12],decreases
same,increase in IL-6 secretion as compared to untreated control cells,BM-MSC [1]; BM-MSC,3.8 fold
same,EPI concentration of maximal induction of IL-6 secretion,"BM-MSC [1]; EPI 50-1000 nM, 4 hr and 24 hr",50 nM
same,wound closure,C57BL/6J mice,significantly decreased
same,TLR2 expression in wound tissue,C57BL/6J mice,increased
same,IL-6 levels in the wound tissue,C57BL/6J mice,significantly elevated
same,phosphorylation of ERK1/2 in wounds,C57BL/6J mice,Decreased
same,TLR2 mRNA expression,BM-MSC [2]; EPI 50 nM,significantly increased
same,TNF-α production with LPS stimulation,murine macrophages,significantly increases
same,BARK-1 phosphorylation,BM-MSC [8],increased
same,MyD88 protein expression,BM-MSC [8]; EPI 50 nM,significantly elevated
same,TLR2 protein levels,BM-MSC [8]; EPI 50 nM,significantly increased
same,increase in IL-6 secretion as compared to untreated NHK,NHK [9],16 fold
